Results: publication PMC9921564, “Novel Indole-Containing Hybrids Derived from Millepachine: Synthesis, Biological Evaluation and Antitumor Mechanism Study” (Molecules, 2023)

What was measured:
[1] = system: MCF-7 (human breast carcinoma cell line); assay: CCK-8 antiproliferative assay, MCF-7; format: cell-based; conditions: MCF7, 48 h, read-out: IC50, Mean ± SE, MCF-7
[2] = system: RWPE-1 (human prostate epithelial cells); assay: CCK-8 cytotoxicity, RWPE-1 normal cells; format: cell-based
Text: High cytotoxicity is one of the most limiting factors in chemotherapeutics.
(§1) A549 (non-small-cell-lung cancer cell line), Caski (human epithelial cervical cancer cell line), HepG2 (human liver carcinoma cell line), MCF-7 (human breast carcinoma cell line), C42B (human prostate cancer line C42B), L-02 (human normal hepatocytes), RWPE-1 (human prostate epithelial cells) and MCF-10A (human normal mammary epithelial cells) were obtained from National Collection of Authenticated Cell Cultures (Shanghai, China). […]
(§2) After 24 h, the medium containing different concentrations of tested compounds were added for another 48 h. […] The optical density was recorded with a microplate reader at 570 nm (Thermo Scientific, Varioskan LUX). All the experiments were repeated independently at least three times and the IC50 values were calculated […]
The fluorescence intensity enhancement (emission wavelength is 410 nm, excitation wavelength is 340 nm) was recorded every 60 s for 60 min in a multifunction microplate reader (Molecular Devices, Flex Station 3). […]

[3] = system: A549/CDDP (A549 cell line resistant to cisplatin); assay: CCK-8 cytotoxicity, A549/CDDP; format: cell-based; conditions: Homo sapiens, 48 h, CCK-8, cisplatin-resistant, read-out: IC50, Mean ± SE, A549/CDDP
Procedure: (§3) Besides the high cytotoxicity, drug resistance is the other limiting factor of chemotherapeutics. In this study, the cytotoxicities of compound 14b towards five kinds of drug-resistant cancer cell lines were also evaluated. Except three kinds of cell lines that are resistant to three drugs commonly used in clinical practice, two kinds of cell lines that are resistant to MTAs were also evaluated.
as §1, §2

[4] = system: A2780 (human ovarian cancer cell line); assay: CCK-8 cytotoxicity, A2780; format: cell-based; conditions: 48 h, read-out: IC50, Mean ± SE, A2780
Procedure: as §3, §1, §2

[5] = system: HCT-8 (human ileocecum carcinoma cell line); assay: CCK-8 cytotoxicity, HCT-8; format: cell-based; conditions: 48 h, read-out: IC50, Mean ± SE, HCT-8
Procedure: as §3, §1, §2

A549 cells = assay: intracellular microtubule morphology by immunofluorescence; format: cell-based, human; conditions: A549, 10, 20 and 50 nM, 12 h
Procedure: Tubulin–microtubule homeostasis is crucial for cell mitosis.
Figure 2 Effect of compound 14b on tubulin. […] The experiments were performed at least three times, and representative images are shown. Scale bars are 10 μm. […] The backbone of tubulin is shown in ribbon representation (α-tubulin, yellow; β-tubulin, green). […] The data were shown as mean ± SE (standard error) of at least three independent experiments.
S Ⅳ. Biological evaluation methods
The cells grown in logarithmical phase were seeded in 96-well plates with the density of 5×10^3/well.
After 24 h, the medium containing different concentrations of tested compounds were added for another 48 h. Then, CCK-8 reagents were added to cells and continued to culture for 2 h. The optical density was recorded with a microplate reader at 570 nm (Thermo Scientific, Varioskan LUX). All the experiments were repeated independently at least three times and the IC50 values were calculated […]
S2. In vitro tubulin polymerization inhibition assay
The in vitro tubulin polymerization inhibition assay was conducted according to the manufacturer ’s instruction (cytoskeleton, cat. no. BK011P). Briefly, 5 μL of the tested compounds at the indicated

**Q.** How did the IC50 [1] turn out when `COc1ccc(C(=O)c2ccc3c(ccn3C)c2)c2c1C=CC(C)(C)O2` [compound 14b, (5-methoxy-2,2-dimethyl-2H-chromen-8-yl)(1-methyl-1H-indol-5-yl)methanone] was run?
**A.** 0.027 ± 0.006 µM

**Q.** And the IC50 ([2]; Homo sapiens, RWPE-1, 48 h, CCK-8, normal cells, read-out: IC50, Mean ± SE, RWPE-1)?
**A.** 3.698 ± 0.036 µM

**Q.** What about the “Selectivity Ratio” value ([2]; IC50 RWPE-1 / IC50 C42B) of the same molecule?
**A.** 72.51

**Q.** What about the IC50 [3] of the same molecule?
**A.** 0.035 ± 0.021 µM

**Q.** And the IC50 [4]?
**A.** 0.036 ± 0.004 µM

**Q.** And the IC50 [5]?
**A.** 0.089 ± 0.015 µM

**Q.** What about the “intracellular tubulin-microtubule homeostasis” value (A549 cells) of the same molecule?
**A.** heavily disturbed
